Key:
Assay in all cases: cells
Type in all cases: cell-based
K-562 = K-562 (Leukemia), 10 μM, 48 hours
MOLT-4 = MOLT-4 (Leukemia), 10 μM, 48 hours
RPMI-8226 = RPMI-8226 (Leukemia), 10 μM, 48 hours
HOP-92 = HOP-92 (Non-Small Cell Lung Cancer), 10 μM, 48 hours
NCI-H226 = NCI-H226 (Non-Small Cell Lung Cancer), 10 μM, 48 hours
NCI-H322M = NCI-H322M (Non-Small Cell Lung Cancer), 10 μM, 48 hours
COLO 205 = COLO 205 (Colon Cancer), 10 μM, 48 hours
HCC-2998 = HCC-2998 (Colon Cancer), 10 μM, 48 hours
HCT-116 = HCT-116 (Colon Cancer), 10 μM, 48 hours
HCT-15 = HCT-15 (Colon Cancer), 10 μM, 48 hours
HT29 = HT29 (Colon Cancer), 10 μM, 48 hours
KM12 = KM12 (Colon Cancer), 10 μM, 48 hours
SF-268 = SF-268 (CNS Cancer), 10 μM, 48 hours
SF-539 = SF-539 (CNS Cancer), 10 μM, 48 hours
SNB-75 = SNB-75 (CNS Cancer), 10 μM, 48 hours
LOX IMVI = LOX IMVI (Melanoma), 10 μM, 48 hours
MALME-3M = MALME-3M (Melanoma), 10 μM, 48 hours
M14 = M14 (Melanoma), 10 μM, 48 hours
SK-MEL-2 = SK-MEL-2 (Melanoma), 10 μM, 48 hours
UACC-62 = UACC-62 (Melanoma), 10 μM, 48 hours
OVCAR-3 = OVCAR-3 (Ovarian Cancer), 10 μM, 48 hours
OVCAR-5 = OVCAR-5 (Ovarian Cancer), 10 μM, 48 hours
OVCAR-8 = OVCAR-8 (Ovarian Cancer), 10 μM, 48 hours
NCI/ADR-RES = NCI/ADR-RES (Ovarian Cancer), 10 μM, 48 hours
A498 = A498 (Renal Cancer), 10 μM, 48 hours
RXF 393 = RXF 393 (Renal Cancer), 10 μM, 48 hours
SN12C = SN12C (Renal Cancer), 10 μM, 48 hours
UO-31 = UO-31 (Renal Cancer), 10 μM, 48 hours
PC-3 = PC-3 (Prostate Cancer), 10 μM, 48 hours
HS 578T = HS 578T (Breast Cancer), 10 μM, 48 hours
T-47D = T-47D (Breast Cancer), 10 μM, 48 hours
MDA-MB-468 = MDA-MB-468 (Breast Cancer), 10 μM, 48 hours

For `CN(C)c1nc2ccccc2c2c1-c1ccc(Cl)cc1C2=O` [SJ-2, 9-Chloro-6-(dimethylamino)-11H-indeno[1,2-c]quinolin-11-one], which growth percentage (K-562) is on record?
The growth percentage was 88.81%.

And the growth percentage (MOLT-4)?
Its growth percentage is 88.92%.

What about the growth percentage (RPMI-8226) of the same molecule?
Its growth percentage is 88.05%.

What about the growth percentage (HOP-92) of the same molecule?
The growth percentage was 44.26%.

And the growth percentage (NCI-H226)?
Its growth percentage is 84.79%.

And the growth percentage (NCI-H322M)?
The growth percentage was 78.83%.

What about the growth percentage (COLO 205) of the same molecule?
Its growth percentage is 100.97%.

And the growth percentage (HCC-2998)?
Its growth percentage is 81.50%.

What about the growth percentage (HCT-116) of the same molecule?
Its growth percentage is 98.57%.

What about the growth percentage (HCT-15) of the same molecule?
Its growth percentage is 80.49%.

And the growth percentage (HT29)?
Its growth percentage is 94.89%.

What about the growth percentage (KM12) of the same molecule?
The growth percentage was 94.44%.

And the growth percentage (SF-268)?
The growth percentage was 100.26%.

What about the growth percentage (SF-539) of the same molecule?
The growth percentage was 87.80%.

What about the growth percentage (SNB-75) of the same molecule?
The growth percentage was 69.12%.

What about the growth percentage (LOX IMVI) of the same molecule?
The growth percentage was 85.45%.

What about the growth percentage (MALME-3M) of the same molecule?
The growth percentage was 111.50%.

What about the growth percentage (M14) of the same molecule?
Its growth percentage is 113.63%.

What about the growth percentage (SK-MEL-2) of the same molecule?
The growth percentage was 95.09%.

What about the growth percentage (UACC-62) of the same molecule?
Its growth percentage is 78.16%.

What about the growth percentage (OVCAR-3) of the same molecule?
Its growth percentage is 103.48%.

What about the growth percentage (OVCAR-5) of the same molecule?
The growth percentage was 89.14%.

What about the growth percentage (OVCAR-8) of the same molecule?
The growth percentage was 84.55%.

And the growth percentage (NCI/ADR-RES)?
Its growth percentage is 92.57%.

What about the growth percentage (A498) of the same molecule?
Its growth percentage is 96.00%.

And the growth percentage (RXF 393)?
The growth percentage was 101.32%.

And the growth percentage (SN12C)?
Its growth percentage is 95.38%.

What about the growth percentage (UO-31) of the same molecule?
The growth percentage was 48.63%.

What about the growth percentage (PC-3) of the same molecule?
Its growth percentage is 82.55%.

What about the growth percentage (HS 578T) of the same molecule?
Its growth percentage is 72.84%.

What about the growth percentage (T-47D) of the same molecule?
Its growth percentage is 44.88%.

What about the growth percentage (MDA-MB-468) of the same molecule?
Its growth percentage is 0.60%.

Reference: patent US20150197492A1, “NOVEL INDENO[1,2-c]QUINOLIN-11-ONE DERIVATIVES, PREPARATION METHOD AND APPLICATION THEREOF” (National Defense Medical Center, priority 2014, published 2015)
